Data reported in ChEMBL document CHEMBL3774337, “In vivo phase II-enzymes inducers, as potential chemopreventive agents, based on the chalcone and furoxan skeletons” (Bioorg Med Chem, 2016).
Active and inactive are the calls of the source. No cut-off for these calls is given here.

Key:
[1] = system: Rattus norvegicus; experiment: Induction of quinone reductase activity in cytosolic fraction of Wistar rat liver at 15 mg/kg/day, po for two weeks using 2,6-DCIP as substrate measured for 1 min relative to control; assay type: functional
[2] = system: Rattus norvegicus; experiment: Toxicity in Wistar rat assessed as change in body weight at 15 mg/kg/day, po for two weeks; assay type: organism-based; settings: in vivo
[3] = system: Rattus norvegicus; experiment: Toxicity in Wistar rat assessed as change in behaviors at 15 mg/kg/day, po for two weeks; assay type: organism-based; settings: in vivo
[4] = Toxicity in Wistar rat assessed as survival at 15 mg/kg/day, po for two weeks; assay type: organism-based; settings: in vivo
[5] = organism: Mus musculus; experiment: Induction of quinone reductase specific activity in mouse Hepa1c1c7 cells using 2,6-DCIP as substrate at 10 uM measured for 1 min relative to control; assay type: cell-based
[6] = organism: Mus musculus; experiment: Induction of quinone reductase specific activity in mouse mutant BpRc1 cells expressing defective translocator receptor Arnt using 2,6-DCIP as substrate at 10 uM measured for 1 min relative to control; assay type: cell-based
[7] = organism: Mus musculus; experiment: Ratio of quinone reductase specific activity in mouse Hepa1c1c7 cells to quinone reductase specific activity in mouse mutant BpRc1 cells; assay type: cell-based
[8] = system: MCF7; experiment: Cytotoxicity against human MCF7 cells at 100 uM after 24 hrs by SRB assay; assay type: functional, cell-based
[9] = system: HT-29; experiment: Cytotoxicity against human HT-29 cells at 100 uM after 24 hrs by SRB assay; assay type: functional, cell-based
[10] = system: Salmonella typhimurium; experiment: Mutagenicity in Salmonella typhimurium TA98 assessed as revertant colonies at 0.02 to 2 ug/plate by Ames test in absence of mouse liver S9 fraction; assay type: toxicity, organism-based; settings: salmonella enterica subsp. enterica serovar typhimurium
[11] = system: Salmonella typhimurium; experiment: Mutagenicity in Salmonella typhimurium TA98 assessed as revertant colonies at 0.02 to 2 ug/plate by Ames test in presence of mouse liver S9 fraction; assay type: toxicity, organism-based; settings: salmonella enterica subsp. enterica serovar typhimurium
[12] = system: Salmonella typhimurium; experiment: Mutagenicity in Salmonella typhimurium TA98 assessed as revertant colonies at 0.5 to 30 ug/plate by Ames test in absence of mouse liver S9 fraction; assay type: toxicity, organism-based; settings: salmonella enterica subsp. enterica serovar typhimurium
[13] = system: Salmonella typhimurium; experiment: Mutagenicity in Salmonella typhimurium TA98 assessed as revertant colonies at 0.5 to 30 ug/plate by Ames test in presence of mouse liver S9 fraction; assay type: toxicity, organism-based; settings: salmonella enterica subsp. enterica serovar typhimurium
[14] = Cytotoxicity against mouse Hepa1c1c7 cells after 48 hrs by SRB assay; assay type: cell-based; settings: Hepa-1c1c7, 48 h
[15] = organism: Mus musculus; experiment: Induction of quinone reductase specific activity in mouse Hepa1c1c7 cells assessed as concentration required to double enzyme specific activity using 2,6-DCIP as substrate measured for 1 min; assay type: cell-based
[16] = Chemoprotective index, ratio of IC50 for mouse Hepa1c1c7 cells to CD for quinone reductase activity in mouse Hepa1c1c7 cells
[17] = Cytotoxicity against mouse mutant BpRc1 cells after 48 hrs by SRB assay; assay type: cell-based; settings: BPrc1, 48 h
[18] = organism: Mus musculus; experiment: Induction of quinone reductase activity in mouse mutant BpRc1 cells using 2,6-DCIP as substrate measured for 1 min; assay type: cell-based
[19] = Chemoprotective index, ratio of IC50 for mouse mutant BpRc1 cells to CD for quinone reductase activity in mouse mutant BpRc1 cells
[20] = organism: Mus musculus; experiment: Ratio of induction of quinone reductase specific activity in mouse mutant BpRc1 cells to mouse Hepa1c1c7 cells; assay type: cell-based
[21] = target: T1, Nuclear factor erythroid 2-related factor 2 (Mus musculus) (UniProt Q60795); experiment: Induction of Nrf2 nuclear translocation in mouse Hepa1c1c7 cells assessed as protein accumulation in nucleus at 20 uM by DAPI staining based immunofluorescence assay; assay type: cell-based
T1 sequence (whole entry): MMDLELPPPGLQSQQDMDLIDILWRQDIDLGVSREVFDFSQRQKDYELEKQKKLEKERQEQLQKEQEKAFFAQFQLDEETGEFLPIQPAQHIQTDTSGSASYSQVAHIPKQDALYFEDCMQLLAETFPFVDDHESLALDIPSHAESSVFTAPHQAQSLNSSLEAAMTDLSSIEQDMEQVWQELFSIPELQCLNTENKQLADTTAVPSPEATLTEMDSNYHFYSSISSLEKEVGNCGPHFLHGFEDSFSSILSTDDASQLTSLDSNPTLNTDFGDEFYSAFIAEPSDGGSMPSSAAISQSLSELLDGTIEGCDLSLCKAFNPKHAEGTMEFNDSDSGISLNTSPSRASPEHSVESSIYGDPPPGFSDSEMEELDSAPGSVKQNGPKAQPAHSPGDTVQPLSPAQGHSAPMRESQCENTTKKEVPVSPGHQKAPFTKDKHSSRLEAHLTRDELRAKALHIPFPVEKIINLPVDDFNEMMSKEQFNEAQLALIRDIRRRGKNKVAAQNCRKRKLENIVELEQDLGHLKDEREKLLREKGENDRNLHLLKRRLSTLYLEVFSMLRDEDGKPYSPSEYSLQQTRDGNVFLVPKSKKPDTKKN

[22] = system: Rattus norvegicus; experiment: Induction of glutathione S-transferase activity in cytosolic fraction of Wistar rat liver at 15 mg/kg/day, po for two weeks using CDNB as substrate measured for 1 min relative to control; assay type: functional
[23] = system: Rattus norvegicus; experiment: Induction of CYP450 activity in microsomal fraction of Wistar rat liver at 15 mg/kg/day, po for two weeks using 7-ethoxyresorufine as substrate measured for 5 mins relative to control; assay type: ADME, organism-based; settings: in vivo
[24] = system: Rattus norvegicus; experiment: Induction of quinone reductase activity in cytosolic fraction of Wistar rat colon at 15 mg/kg/day, po for two weeks using 2,6-DCIP as substrate at 10 uM measured for 1 min relative to control; assay type: functional
[25] = system: Rattus norvegicus; experiment: Induction of glutathione S-transferase activity in cytosolic fraction of Wistar rat colon at 15 mg/kg/day, po for two weeks using CDNB as substrate measured for 1 min relative to control; assay type: functional
[26] = system: Rattus norvegicus; experiment: Induction of CYP450 activity in microsomal fraction of Wistar rat colon at 15 mg/kg/day, po for two weeks using 7-ethoxyresorufine as substrate measured for 5 mins; assay type: ADME, organism-based; settings: in vivo
[27] = system: Salmonella typhimurium; experiment: Mutagenicity in Salmonella typhimurium TA98 assessed as revertant colonies at 5 to 400 ug/plate by Ames test in absence of mouse liver S9 fraction; assay type: toxicity, organism-based; settings: salmonella enterica subsp. enterica serovar typhimurium
[28] = system: Salmonella typhimurium; experiment: Mutagenicity in Salmonella typhimurium TA98 assessed as revertant colonies at 5 to 400 ug/plate by Ames test in presence of mouse liver S9 fraction; assay type: toxicity, organism-based; settings: salmonella enterica subsp. enterica serovar typhimurium
[29] = system: Salmonella typhimurium; experiment: Mutagenicity in Salmonella typhimurium TA98 assessed as revertant colonies at 0.5 to 40 ug/plate by Ames test in absence of mouse liver S9 fraction; assay type: toxicity, organism-based; settings: salmonella enterica subsp. enterica serovar typhimurium
[30] = system: Salmonella typhimurium; experiment: Mutagenicity in Salmonella typhimurium TA98 assessed as revertant colonies at 0.5 to 40 ug/plate by Ames test in presence of mouse liver S9 fraction; assay type: toxicity, organism-based; settings: salmonella enterica subsp. enterica serovar typhimurium
[31] = system: Salmonella typhimurium; experiment: Mutagenicity in Salmonella typhimurium TA98 assessed as revertant colonies at 2 to 167 ug/plate by Ames test in absence of mouse liver S9 fraction; assay type: toxicity, organism-based; settings: salmonella enterica subsp. enterica serovar typhimurium
[32] = system: Salmonella typhimurium; experiment: Mutagenicity in Salmonella typhimurium TA98 assessed as revertant colonies at 2 to 167 ug/plate by Ames test in presence of mouse liver S9 fraction; assay type: toxicity, organism-based; settings: salmonella enterica subsp. enterica serovar typhimurium
[33] = system: Salmonella typhimurium; experiment: Mutagenicity in Salmonella typhimurium TA98 assessed as revertant colonies at 6 to 500 ug/plate by Ames test in absence of mouse liver S9 fraction; assay type: toxicity, organism-based; settings: salmonella enterica subsp. enterica serovar typhimurium
[34] = system: Salmonella typhimurium; experiment: Mutagenicity in Salmonella typhimurium TA98 assessed as revertant colonies at 6 to 500 ug/plate by Ames test in presence of mouse liver S9 fraction; assay type: toxicity, organism-based; settings: salmonella enterica subsp. enterica serovar typhimurium

SMILES	Activity [1]	Activity [2]	Activity [3]	survival at 2 weeks [4]	fold change (FC) [5]	fold change (FC) [6]	Ratio [7]	Activity [8]	Activity [9]	other results
O=C(/C=C/c1ccc(Br)cc1)c1ccccc1O	128%	Non-toxic	Non-toxic	100%						
Cc1c(/C=C/C(=O)c2ccccc2)no[n+]1[O-]					1.35	1.01	1.34	Active	Active	Activity [10]: Non-toxic; Activity [11]: Non-toxic
O=C(/C=C/c1c(-c2ccccc2)no[n+]1[O-])c1ccc2ccccc2c1					2.49	1.06	2.35			Activity [12]: Non-toxic; Activity [13]: Non-toxic
O=C(/C=C/c1ccc2c(c1)no[n+]2[O-])c1ccc2ccccc2c1					1.77	1.01	1.75	Active	Active	
CC(C)(C)c1cc(O)ccc1O [E319]										IC50 [14]: 147 µM; CD [15]: 1 µM; Ratio [16]: 147; IC50 [17]: 60 µM; CD [18]: 6 µM; Ratio [19]: 10; Ratio [20]: 6; Activity [21]: Active
O=C(/C=C/c1c(-c2ccccc2)no[n+]1[O-])c1ccccc1	110%	Non-toxic	Non-toxic	100%	1.9	1.58	1.2	Active	Active	IC50 [14]: 36 µM; CD [15]: 12 µM; Ratio [16]: 3; IC50 [17]: 38 µM; CD [18]: 13 µM; Ratio [19]: 2.9; Ratio [20]: 1.1; Activity [21]: Active; Activity [22]: 180%; Activity [23]: 60%; Activity [24]: 12%; Activity [25]: 13%; Activity [26]: Not Active; Activity [27]: Non-toxic; Activity [28]: Non-toxic
O=C(/C=C/c1c(-c2ccccc2)no[n+]1[O-])c1ccccc1O	80%	Non-toxic	Non-toxic	100%	3.01	1.82	1.65	Active	Active	IC50 [14]: 40 µM; CD [15]: 8 µM; Ratio [16]: 5; IC50 [17]: 38 µM; CD [18]: 12 µM; Ratio [19]: 3.2; Ratio [20]: 1.5; Activity [21]: Active; Activity [22]: 110%; Activity [23]: 40%; Activity [24]: Active; Activity [25]: Active; Activity [26]: Active; Activity [29]: Non-toxic; Activity [30]: Non-toxic
O=c1cc(-c2ccc(Br)cc2)oc2ccccc12					4.45	1.49	2.99			IC50 [14]: 85 µM; CD [15]: 0.79 µM; Ratio [16]: 107; IC50 [17]: 150 µM; CD [18]: 80 µM; Ratio [19]: 1.9; Ratio [20]: 100
O=C(/C=C/c1ccc2c(c1)no[n+]2[O-])c1ccccc1					1.01	1.7	0.59	Active	Active	Activity [31]: Toxic; Activity [32]: Non-toxic
O=C(/C=C/c1ccccc1)c1ccccc1O [2'-HYDROXYCHALCONE]	Active	Non-toxic	Non-toxic	100%						Activity [22]: Active
Cc1c(/C=C/C(=O)c2ccccc2O)no[n+]1[O-]					1.49	1.18	1.26	Active	Active	Activity [33]: Non-toxic; Activity [34]: Non-toxic
O=C(/C=C/c1ccc2c(c1)no[n+]2[O-])c1ccccc1O					1.39	1.18	1.18			Activity [33]: Non-toxic; Activity [34]: Non-toxic
COc1ccc(/C=C/C(=O)c2ccccc2)cc1 [4-METHOXY CHALCONE]	Active	Non-toxic	Non-toxic	100%						
Cc1c(/C=C/C(=O)c2ccc3ccccc3c2)no[n+]1[O-]					1.49	0.99	1.5	Active	Active	Activity [33]: Non-toxic; Activity [34]: Non-toxic
